Reference: US8993626B2, “Methods of treatment using sterculic acid” (The United States of America, as represented by the …, priority 2010, dated 2015)
“Also recorded” adds a separate entry of the source.

Assays:
[1] = test system: Non-Small Cell Lung Cancer, NCI-H226; assay: NCI in vitro anti-cancer cell line screen (SRB); conditions: Homo sapiens, NCI-H226, 48 h
Description: (§1) The human tumor cell lines used in the cancer screen panel were grown in RPMI 1640 medium containing 5% FBS and 2 mM L-glutamine. The cells were inoculated into 96-well microtiter plates in 100 μl at plating density ranging from 5000 to 40,000 cell/well. […] Following drug addition, the plates were incubated for an additional 48 h. The assay was terminated by the addition of cold 10% TCA. The supernatant was discarded, and the plates were washed five times with water and air dried. Sulforhodamine B (SRB) solution (100 μl) at 0.4% (w/v) in 1% acetic acid was added to each well, and plates were incubated for 10 min at room temperature. After staining, unbound dye was removed by washing five times with 1% acetic acid and the plates were air dried. Bound stain was subsequently solubilized with 10 mM trizma base, and the absorbance was read on an automated plate reader at a wavelength of 515 nm.
(§2) A sulforhodamine B (SRB) end point was used to calculate the median growth inhibition (GI50). GI50 refers to the concentration at which the drug inhibits tumor cell growth by 50%.

[2] = test system: Human retinal pigment epithelial (RPE) cells (ARPE-19); assay: Microarray-based gene expression analysis of sterculic acid treated RPE cells; type: cell-based; conditions: 10 μM sterculic acid, 72 h
Description: Human retinal pigment epithelial (RPE) cells (ARPE-19) obtained from ATCC (Manassas, Va.) were grown in Dulbecco's Modified Eagle's Medium (DMEM) containing nutrient mixture F12 (Cellgro, Va.) supplemented with 5% fetal bovine serum, penicillin (100 U/ml) and streptomycin (100 μg/ml). Cells were seeded at a density of 2×10^5 cells/ml in complete medium and allowed to grow overnight. The culture medium was replaced next day with fresh medium before treating with 10 μM of sterculic acid dissolved in DMSO. The controls received the same amount of DMSO. After 72 h, total RNA, 100 ng, was amplified according to Affymetrix's small sample protocol, and 20 μg of cRNA was then hybridized on each NEI GeneChip microarray. After hybridization, GeneChip array was washed, stained with streptavidin-PE (Molecular Probes), amplified with biotinylated anti-streptavidin antibody and scanned with an argon ion Confocal Laser at 570 nm (Affymetrix). Affymetrix GeneChip Operating software was used for absolute expression and to normalize the gene expression levels between any two samples. Data were then incorporated into GeneSpring software 7.2 ([…]) for chip normalization, filtering and cluster analysis.

ARPE19 cells [3] = assay: 7-ketocholesterol-mediated cytotoxicity, 24-well CCK-8 viability and images; conditions: 24 hr
ARPE19 cells [4] = assay: Cell Counting Kit-8 viability assay, 15 μM 7KCh-induced cytotoxicity; conditions: 1 μM fatty acid + 15 μM 7KCh
Description: 4×10^4 cells were seeded onto wells of a 96 well plate. […] Cell viability was determined as celluar dehydrogenase activity and expressed as the percentage of compound treated cells relative to that of untreated controls. error bar: standard deviation, n=4.
The kit allows sensitive colorimetric assays for the determination of the number of viable cells in cell proliferation and cytotoxicity assays. The amount of the formazan dye generated by the activity of dehydrogenases in cells is directly proportional to the number of living cells.
1) Cells were cultivated in a 96 well cell plate (Costar#3599, Corning Incorp, Corning, N.Y.).
2) The cell suspension (40,000 cells/100 μL) were added to 100 μL culture media per well and stood for 15 min at room temperature and cultured at 37° C. in a humidified 5% CO2 atmosphere.
3) Approximately 19 hr after seeding, when the cells were fully confluent, the cells were treated with either DMSO or 1 μM fatty acid in 200 μL of serum free media and subsequently added with 15 μM 7KCh in HPBCD. Then, the plate was swirled for mixing. The cells were also treated with DMSO and HPBCD, which served as vehicle control. The final DMSO and HPBCD concentrations in the media were in the range of 0.1% and 0.0675%, respectively.
Cell viability was expressed as the percentage of compound treated cells relative to that of untreated controls. Prior to measure cell viability, the cells were imaged live by Nikon TE 2000-U inverted fluorescent microscope.

ARPE-19 cells = assay: ELISA of secreted VEGF, IL-6, IL-8 in conditioned medium; type: cell-based; conditions: 6 μM 7KCh alone or with 1 μM fatty acid, 48 hr
Description: FIGS. 16A-16E depict the secreted protein levels of (A) VEGF, (B) IL-6, and (C) IL-8 were measure by ELISA 48 hr after treatment with 6 μM 7KCh, 1 μM sterculic acid, 1 μM stearic acid, or the combinations of 7KCh with either sterculic acid or stearic acid. Error bars indicate the standard deviations. *p<0.05 comparing to 7KCh, n=3. Two-tailed Student's t-test. The expressions of GRP78 and CHOP were shown by immunoblots (D) 24 hr or (E) 48 hr after treatment with 8 μM 7KCh, 1 μM sterculic acid, 1 μM stearic acid, or the combinations of 7KCh with either sterculic acid or stearic acid.
ARPE-19 cells were seeded in 24-well plates with 1×10^5 cells per well and allowed to recover for 16-24 hr. Once confluency reached approximately 90%, the effect of the fatty acids against 7KCh-mediated cell death was examined 24 hr after incubation in serum-free medium with 12 μM 7KCh. Fatty acids were tested at 0.1, 0.5, 1, 5 and 10 μM concentrations. The effects of the fatty acids against 7KCh-mediated inflammation and ER stress were examined by incubating cells in 1 μM fatty acids with either 8 μM 7KCh (24 hr for quantitative real-time PCR (qRT-PCR), 24 and 48 hr for immunoblot), or 6 μM 7KCh for 48 hr (for ELISA). Three individual experiments were performed for each treatment with quadruplicate measurements performed for each experiment in 24-well plates.
The levels of secreted VEGF, IL-6, IL-8, and TNF-α in conditioned medium of ARPE-19 cell cultures were measured 48 hr after treatments of 6 μM 7KCh and 1 μM fatty acids using the Quantkine ELISA kits from R&D systems (Minneapolis, Minn.). The protein levels were measured in triplicates. The ELISA results were quantified using an Envision multilable plate reader (PerkinElmer, Covina, Calif.) and presented in percentage relative to the vehicle-only control.

Leukemia, SR-91 = assay: NCI in vitro anti-cancer cell line screen (SRB); conditions: Homo sapiens, 48 h
Description: as §1, §2

Melanoma, UACC-62 = assay: NCI in vitro anti-cancer cell line screen (SRB); conditions: Homo sapiens, UACC-62, 48 h
Description: as §1, §2

Leukemia, HL-60 (TB) = assay: NCI in vitro anti-cancer cell line screen (SRB); type: cell-based; conditions: Homo sapiens, 48 h

## CCCCCCCCC1=C(CCCCCCCC(=O)O)C1 [sterculic acid, 8-(2-octacyclopropen-1-yl)octanoic acid]
[1]
  GI50: 10 µM
[2]
  Fold Change, ALDH3A1, down-regulated: 7 fold
  Fold Change, ALDH7A1, up-regulated: 15 fold
  Fold Change, ATF4, down-regulated: 7 fold
  Fold Change, BMP7, up-regulated: 6 fold
  Fold Change, CRABP1, down-regulated: 8 fold
  Fold Change, CTSC, up-regulated: 9 fold
  Fold Change, FNTA, up-regulated: 4 fold
  Fold Change, GADD45B, down-regulated: 7 fold
  Fold Change, GOT2, up-regulated: 5 fold
  Fold Change, HSPCA, up-regulated: 11 fold
  Fold Change, HYOU1, down-regulated: 10 fold
  Fold Change, IGFBP3, down-regulated: 3 fold
  Fold Change, MMP2, down-regulated: 7 fold
  Fold Change, MT1H, down-regulated: 8 fold
  Fold Change, PALLD, up-regulated: 5 fold
  Fold Change, SCEL, up-regulated: 5 fold
  Fold Change, SOD1, up-regulated: 5 fold
  Fold Change, SUOX, up-regulated: 3 fold
  Fold Change, VBP1, up-regulated: 5 fold
ARPE19 cells [3]; 0.5 μM co-treatment with 12 μM 7KCh
  protection of cell confluency and morphology (images): maintain both cell confluency and cell morphology similar to the control; also recorded: apparent protection
ARPE19 cells [3]; 1 μM co-treatment with 12 μM 7KCh
  protection of cell confluency and morphology (images): maintain both cell confluency and cell morphology similar to the control; also recorded: apparent protection
ARPE19 cells [3]; 12 μM 7KCh, CCK-8
  co-treatment concentration that completely offsets the 7KCh cytotoxic effect: 1 µM
  concentration at which apparent protection is seen: 0.5 µM
ARPE19 cells [4]
  protective effect against cytotoxicity by 7KCh (summary of the viability assays): greatest protective effect
ARPE-19 cells
  secreted IL-6 protein expression: 1.4 fold
  secreted IL-8 protein expression: 1.1 fold
  secreted VEGF protein expression: 1.1 fold
Leukemia, SR-91
  GI50: 10 µM
Melanoma, UACC-62
  GI50: 1 µM
Leukemia, HL-60 (TB)
  GI50: 10 µM
